Earlier results on one compound are cited in article PMC10721329, “Quisinostat is a brain-penetrant radiosensitizer in glioblastoma” (JCI Insight, 2023).

For the series the following is noted: human, in vivo; cited from earlier work.

For `Cc1[nH]c2ccccc2c1CCNCc1ccc(/C=C/C(=O)NO)cc1` [panobinostat], the “hematologic toxicities compared with QST” value was “far more common and severe (grade 3 and 4)”.
